{"source": "patent US9301951B2", "about": "(Ardelyx, Inc., priority 2010, dated 2016)"}
{"target": "T1, rat NaP2b (SLC34A2) (Rattus norvegicus, UniProt Q9JJ09)", "T1 construct": "host or cells: HEK293", "T1 sequence (Q9JJ09 1-695)": "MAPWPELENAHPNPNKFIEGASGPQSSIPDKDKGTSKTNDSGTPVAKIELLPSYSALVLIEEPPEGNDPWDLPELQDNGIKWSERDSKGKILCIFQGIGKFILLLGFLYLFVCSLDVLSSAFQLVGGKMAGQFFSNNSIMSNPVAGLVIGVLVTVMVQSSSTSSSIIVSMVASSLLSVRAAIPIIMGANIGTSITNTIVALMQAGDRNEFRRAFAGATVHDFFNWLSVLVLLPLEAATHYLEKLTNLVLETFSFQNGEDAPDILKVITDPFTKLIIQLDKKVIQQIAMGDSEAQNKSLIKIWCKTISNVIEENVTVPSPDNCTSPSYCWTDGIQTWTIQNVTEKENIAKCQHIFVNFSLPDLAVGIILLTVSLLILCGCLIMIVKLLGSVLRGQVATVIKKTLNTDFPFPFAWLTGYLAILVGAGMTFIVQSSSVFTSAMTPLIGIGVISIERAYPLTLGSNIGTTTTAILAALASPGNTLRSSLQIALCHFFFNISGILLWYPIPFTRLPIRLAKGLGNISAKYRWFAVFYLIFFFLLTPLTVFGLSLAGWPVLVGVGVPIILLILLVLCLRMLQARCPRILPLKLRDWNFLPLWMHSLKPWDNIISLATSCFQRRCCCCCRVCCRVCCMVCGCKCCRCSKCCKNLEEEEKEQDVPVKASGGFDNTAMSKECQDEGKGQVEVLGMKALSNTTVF", "experiment": "Inhibition of NaP2b-mediated Pi (33P) uptake in transfected HEK293 cells, rat NaP2b", "assay_type": "cell-based", "conditions": "HEK293 cells transfected with rat NaP2b, 100 uM phosphate, 0.1 nM to 30 uM, read-out: pIC50 range for rat Nap2b (converted)", "procedure": "(§1) HEK293 cells were obtained from the American Type Culture collection and propagated per their instructions. Expression clones for rat and human NaP2b (SLC34A2) were obtained from Open Biosystems (Catalog numbers MRN1768-9510282, and MHS1010-99823026, respectively). The sequence of the human protein was mutated to insert a threonine after residue 37, and to introduce a N39D mutation.\n(§2) Cells were seeded into 96-well plates at 25,000 cells/well and cultured overnight. Lipofectamine 2000 (Invitrogen) was used to introduce the NaP2b cDNA, and the cells were allowed to approach confluence during a second overnight incubation. […] Cells were then overlayed with either choline uptake buffer or sodium uptake buffer (14 mM Tris, 137 mM sodium chloride, 5.4 mM KCl, 2.8 mM CaCl2, 1.2 mM MgSO4, 100 uM KH2PO4, PiT-silencing agent, 1 mg/mL Bovine Serum Albumin, pH 7.4) containing 6-9 uCi/mL ^33P orthophosphoric acid (Perkin Elmer) and test compound. Each compound was tested at twelve concentrations ranging from 0.1 nM to 30 uM. Assays were run in duplicate.\nCells were lysed by addition of 20 μL 0.1% Tween 80 followed by 100 μL scintillation fluid, and counted using a TopCount (Perkin Elmer).\n(§3) pIC50 (the negative log of the […]) values of the test compounds were calculated using GraphPad Prism.", "units": {"IC50": "µM"}}
{"smiles": "CC(C)(C)OC(=O)N1CCCN(Cc2cccc(C(=O)Nc3ccc(N4CCCCC4)cc3-c3cc(C(=O)NCc4cccc(C(F)(F)F)c4)ccn3)c2)CC1", "note": "[Example 44, tert-Butyl 4-(3-((4-(piperidin-1-yl)-2-(4-((3-(trifluoromethyl)benzyl)carbamoyl)pyridin-2-yl)phenyl)carbamoyl)benzyl)-1,4-diazepane-1-carboxylate]", "IC50": "10 to 31.6"}
{"smiles": "CN1CCCN(Cc2cccc(C(=O)Nc3ccc(N4CCCCC4)cc3-c3cc(C(=O)NCc4cccc(C(F)(F)F)c4)ccn3)c2)CC1", "note": "[Example 45, 2-(2-(3-((4-Methyl-1,4-diazepan-1-yl)methyl)benzamido)-5-(piperidin-1-yl)phenyl)-N-(3-(trifluoromethyl)benzyl)isonicotinamide]", "IC50": "10 to 31.6"}
{"smiles": "CC(=O)NC1CCN(Cc2cccc(C(=O)Nc3ccc(N4CCCCC4)cc3-c3cc(C(=O)NCc4cccc(C(F)(F)F)c4)ccn3)c2)CC1", "note": "[Example 46, 2-(2-(3-((4-Acetamidopiperidin-1-yl)methyl)benzamido)-5-(piperidin-1-yl)phenyl)-N-(3-(trifluoromethyl)benzyl)isonicotinamide]", "IC50": "10 to 31.6"}
{"smiles": "CC(=O)N1CCCN(Cc2cccc(C(=O)Nc3ccc(N4CCCCC4)cc3-c3cc(C(=O)NCc4cccc(C(F)(F)F)c4)ccn3)c2)CC1", "note": "[Example 49, 2-(2-(3-((4-Acetyl-1,4-diazepan-1-yl)methyl)benzamido)-5-(piperidin-1-yl)phenyl)-N-(3-(trifluoromethyl)benzyl)isonicotinamide]", "IC50": "1 to 7.94"}
{"smiles": "CC(=O)N1CCN(Cc2cccc(C(=O)Nc3ccc(N4CCCCC4)cc3-c3cc(C(=O)NCc4cccc(C(F)(F)F)c4)ccn3)c2)CC1", "note": "[Example 50, 2-(2-(3-((4-Acetylpiperazin-1-yl)methyl)benzamido)-5-(piperidin-1-yl)phenyl)-N-(3-(trifluoromethyl)benzyl)isonicotinamide]", "IC50": "1 to 7.94"}
{"smiles": "COCCNC(=O)CCN(C)Cc1cccc(C(=O)Nc2ccc(N3CCCCC3)cc2-c2cc(C(=O)NCc3cccc(C(F)(F)F)c3)ccn2)c1", "note": "[Example 51, 2-(2-(3-(((3-((2-Methoxyethyl)amino)-3-oxopropyl)(methyl)amino)methyl)benzamido)-5-(piperidin-1-yl)phenyl)-N-(3-(trifluoromethyl)benzyl)isonicotinamide]", "IC50": "1 to 7.94"}
{"smiles": "CN(Cc1cccc(C(=O)Nc2ccc(N3CCCCC3)cc2-c2cc(C(=O)NCc3cccc(C(F)(F)F)c3)ccn2)n1)C(=O)CN1CCOCC1", "note": "[Example 53, 6-((N-Methyl-2-morpholinoacetamido)methyl)-N-(4-(piperidin-1-yl)-2-(4-((3-(trifluoromethyl)benzyl)carbamoyl)pyridin-2-yl)phenyl)picolinamide]", "IC50": "1 to 7.94"}
{"smiles": "CCN(CC)c1ccc(NC(=O)c2cccc(C(=O)N(C)CCN3CCCN(C(=O)OCCOCCOCCOCCOCCOCCOCCOCCOCCOCCOCCOC)CC3)c2)c(-c2cc(C(=O)N[C@H]3CCCc4ccccc43)ccn2)c1", "note": "[Example 199, (S)-2,5,8,11,14,17,20,23,26,29,32-undecaoxatetratriacontan-34-yl 4-(2-(3-((4-(diethylamino)-2-(4-((1,2,3,4-tetrahydronaphthalen-1-yl)carbamoyl)pyridin-2-yl)phenyl)carbamoyl)-N-methylbenzamido)ethyl)-1,4-diazepane-1-carboxylate]", "IC50": "1 to 7.94"}
{"smiles": "CCN(CC)c1ccc(NC(=O)c2cccc(C(=O)N(C)CCN(C)CCOCCOCCOCCNC(=O)C(C)(C)C)c2)c(-c2cc(C(=O)NCc3cccc(C(F)(F)F)c3)ccn2)c1", "note": "[Example 346, N^1-(4-(diethylamino)-2-(4-(3-(trifluoromethyl)benzylcarbamoyl)pyridin-2-yl)phenyl)-N^3-methyl-N^3-(3,17,17-trimethyl-16-oxo-6,9,12-trioxa-3,15-diazaoctadecyl)isophthalamide]", "IC50": "1 to 7.94"}
{"target": "T2, human NaP2b (SLC34A2) (Homo sapiens, UniProt O95436)", "T2 construct": "host or cells: HEK293", "T2 sequence (O95436 1-690)": "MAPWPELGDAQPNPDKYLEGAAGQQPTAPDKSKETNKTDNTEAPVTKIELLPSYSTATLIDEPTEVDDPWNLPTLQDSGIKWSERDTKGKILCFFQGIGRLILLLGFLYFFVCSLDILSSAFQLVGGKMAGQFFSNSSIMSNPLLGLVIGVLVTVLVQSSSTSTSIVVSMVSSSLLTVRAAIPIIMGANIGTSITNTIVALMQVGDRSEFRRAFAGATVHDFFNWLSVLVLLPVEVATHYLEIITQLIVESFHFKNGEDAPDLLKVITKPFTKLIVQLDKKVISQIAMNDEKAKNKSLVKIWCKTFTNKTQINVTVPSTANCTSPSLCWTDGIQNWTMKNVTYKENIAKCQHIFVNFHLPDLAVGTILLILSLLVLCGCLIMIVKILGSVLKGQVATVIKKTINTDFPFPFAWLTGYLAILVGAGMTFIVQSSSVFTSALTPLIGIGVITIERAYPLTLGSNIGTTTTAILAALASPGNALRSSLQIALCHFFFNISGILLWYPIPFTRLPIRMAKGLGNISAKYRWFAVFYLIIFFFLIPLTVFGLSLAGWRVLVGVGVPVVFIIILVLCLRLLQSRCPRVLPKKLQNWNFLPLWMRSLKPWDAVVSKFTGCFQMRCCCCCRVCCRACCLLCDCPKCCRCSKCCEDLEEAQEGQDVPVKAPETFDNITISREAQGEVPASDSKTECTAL", "experiment": "Inhibition of NaP2b-mediated Pi (33P) uptake in transfected HEK293 cells, human NaP2b", "assay_type": "cell-based", "conditions": "HEK293 cells transfected with human NaP2b, 100 uM phosphate, 0.1 nM to 30 uM, read-out: pIC50 range for human NaP2b (converted)", "procedure": "as §1\nThe rate of phosphate (Pi) uptake into HEK293 cells was measured using a modification of the method described by Mohrmann et al. (Mohrmann, I., Mohrmann, M., Biber, J., and Murer, H. (1986) Am. J. Phys. 250(3 Pt 1):G323-30.) Transfected HEK293 cells were treated with a pharmacological agent to minimize endogenous PiT-mediated phosphate transport activity, such that the only remaining sodium-dependent phosphate transport activity is that which was bestowed by introduction of the NaP2b genes.\nas §2\nAfter incubation for 3-30 minutes at room temperature, assay mixtures were removed, and the cells were washed twice with ice cold stop solution (137 mM sodium chloride, 14 mM Tris, pH 7.4). Cells were lysed by addition of 20 μL 0.1% Tween 80 followed by 100 μL scintillation fluid, and counted using a TopCount (Perkin Elmer).\nas §3", "units": {"IC50": "µM"}}
{"smiles": "CN(CCN1CCC[C@H]1C(=O)N(C)CCOCCOCCOCCC(=O)OC(C)(C)C)C(=O)c1cccc(C(=O)Nc2ccc(N3CCCCC3)cc2-c2cc(C(=O)N[C@H]3CCCc4ccccc43)ccn2)c1", "note": "[Example 190, tert-Butyl 2-methyl-1-((S)-1-(2-(N-methyl-3-((4-(piperidin-1-yl)-2-(4-(((S)-1,2,3,4-tetrahydronaphthalen-1-yl)carbamoyl)pyridin-2-yl)phenyl)carbamoyl)benzamido)ethyl)pyrrolidin-2-yl)-1-oxo-5,8,11-trioxa-2-azatetradecan-14-oate]", "IC50": "1 to 7.94"}
{"smiles": "CCN(CC)c1ccc(NC(=O)c2cccc(CCCOCCOCCOCCOCCC(=O)N(C)CCOCCOCCOCCOCCOCCOCCOC)c2)c(-c2cc(C(=O)NCc3cccc(C(F)(F)F)c3)ccn2)c1", "note": "[Example 259, 2-(5-(diethylamino)-2-(3-(23-methyl-24-oxo-2,5,8,11,14,17,20,27,30,33,36-undecaoxa-23-azanonatriacontan-39-yl)benzamido)phenyl)-N-(3-(trifluoromethyl)benzyl)isonicotinamide]", "IC50": "1 to 7.94"}
{"smiles": "CCN(CC)c1ccc(NC(=O)c2cccc(CCCOCCOCCOCCOCCC(=O)NCCOCCOCCOCCOCCOCCOCCOC)c2)c(-c2cc(C(=O)NCc3cccc(C(F)(F)F)c3)ccn2)c1", "note": "[Example 260, 2-(5-(diethylamino)-2-(3-(24-oxo-2,5,8,11,14,17,20,27,30,33,36-undecaoxa-23-azanonatriacontan-39-yl)benzamido)phenyl)-N-(3-(trifluoromethyl)benzyl)isonicotinamide]", "IC50": "< 1"}
{"smiles": "CCN(CC)c1ccc(NC(=O)c2cccc(CCCOCCOCCOCCOCCNC(=O)c3cccc(CCCOCCOCCOCCOCCOCCOCCOCCOCCOC)c3)c2)c(-c2cc(C(=O)NCc3cccc(C(F)(F)F)c3)ccn2)c1", "note": "[Example 271, 2-(2-(3-(1-(3-(2,5,8,11,14,17,20,23,26-nonaoxanonacosan-29-yl)phenyl)-1-oxo-5,8,11,14-tetraoxa-2-azaheptadecan-17-yl)benzamido)-5-(diethylamino)phenyl)-N-(3-(trifluoromethyl)benzyl)isonicotinamide]", "IC50": "< 1"}
{"smiles": "O=C(O)CCOCCOCCOCCOCCCc1cccc(C(=O)Nc2ccc(OC3CCC3)cc2-c2cc(C(=O)N[C@H]3CCCc4ccccc43)ccn2)c1", "note": "[Example 285, (S)-16-(3-((4-cyclobutoxy-2-(4-((1,2,3,4-tetrahydronaphthalen-1-yl)carbamoyl)pyridin-2-yl)phenyl)carbamoyl)phenyl)-4,7,10,13-tetraoxahexadecan-1-oic acid]", "IC50": "< 1"}
